Measured values reported in patent publication US20190240344A1, “FUNCTIONAL RNA AND SMALL-MOLECULE DRUG THERAPEUTIC COMPLEXES AND NANOPARTICLE DELIVERY VEHICLES” (EOS BIOSCIENCES, INC., priority 2016, published 2019).

How the values were obtained:
[1] = system: JIMT1 cells (trastuzumb-resistant human breast cancer); test: Cell viability of JIMT1 cells after transfection (Celltiter Glo, ATP); assay type: cell-based; details: three doses, 24, 48, 72 hours, RNAiMax lipofectamine carrier (doxorubicin alone without lipofectamine)
Method: (§1) To measure the effect of the complexes on cell viability, the formed complexes were transfected into JIMT1 cells (trastuzumb-resistant human breast cancer). Approximately 10,000 cells per well were plated in 96-well plates, maintained in RPMI 1640 medium with 100% fetal bovine serum, 100 U/mL penicillin, 100 μg/mL streptomycin at 37° C. under 5% CO2. After 24 hours, the culture media was replaced with Opti-MEM I reduced serum medium (Invitrogen Life Technologies). RNAiMax lipofectamine (Invitrogen Life Technologies) was used as a carrier for siRNA, Dox:siRNA complexes, and the Dox:DNA oligo complex delivery. Doxorubicin was administered to the control sample without the lipofectamine. Three hours following transfection, the medium in each sample was replaced with complete culture media. After 24, 48, or 72 hours, relative cell viability was determined by quantifying ATP using Celltiter Glo Luminescent Cell Viability Kit (Promega), according to the manufacturer's instructions. Experiments were conducted in triplicate. Results are shown in FIG. 5A (24 hours), 5B (48 hours), and SC (72 hours).

[2] = system: 4T1-Fluc-Neo/eGFP-Puro cells (mouse mammary carcinoma cells); test: Cell viability of 4T1-Fluc-Neo/eGFP-Puro cells after transfection (Celltiter Glo, ATP); assay type: cell-based; details: three doses, 24 hours, RNAiMax lipofectamine carrier (doxorubicin alone without lipofectamine)
Method: as §1, with “4T1-Fluc-Neo/eGFP-Puro” for “JIMT1”, “(mouse mammary carcinoma cells stably expressing FLuc and eGFP).” for “(trastuzumb-resistant human breast cancer).”, “[…],” for “100%”, “siScrm2, dox:siScrm2, siRNA3, or dox:siRNA3” for “siRNA, Dox:siRNA complexes, and the Dox:DNA oligo complex”, “24” for “24, 48, or 72”, “triplicate.” for “triplicate. Results are shown in FIG. 5A (24 hours), 5B (48 hours), and SC (72 hours).”

In the case of `COc1cccc2c1C(=O)c1c(O)c3c(c(O)c1C2=O)C[C@@](O)(C(=O)CO)C[C@@H]3O[C@H]1C[C@H](N)[C@H](O)[C@H](C)O1` [doxorubicin], the relative cell viability [1] is reported as “dose-dependent decrease in cell viability” and the relative cell viability [2] is reported as “dose-dependent decrease in cell viability”.
